{"source": "patent US20260199254A1", "about": "“COMPOSITIONS AND METHODS OF USE THEREOF FOR INCREASING IMMUNE RESPONSES” (priority 2022, published 2026)", "key": {"[1]": {"test_system": "C57BL/6 mice bearing B16F10-OVA tumors", "assay": "Therapy study, combination with chemotherapy (carboplatin)", "type": "in vivo", "conditions": "carboplatin alone, 40 mg/kg i.p.", "method": "Combination with chemotherapy: This was investigated in C57BL/6 mice bearing B16F10-OVA tumors. When tumor sizes reached ~50 mm3, the animals were randomized to receive the following treatments (n=5 for each group): (1) PBS (i.t., 50 μL*2, Day 0 and Day 2); (2) Carboplatin (i.p., 40 mg/kg, 100 μL, Day 0); (3) Carboplatin (i.p., 40 mg/kg, 100 μL, Day 0)+AnCHNPs (i.t., 200 μg/kg*2, 50 μL, Day 0 and Day 2). The tumor size and body weight were inspected daily. The tumor was measured in two dimensions with a caliper and tumor volume was estimated as (length)×(width) 2/2."}, "BMDCs [2]": {"test_system": "BMDCs", "assay": "Cell uptake of Cy5-labeled nanoparticles by flow cytometry", "type": "cell-based, mouse", "conditions": "co-incubation with Cy5-labeled AnCHNPs 5 μg/mL", "method": "BMDCs were seeded into 6-well plates at a density of 1×10^6 cells per well and incubated overnight. The cells were then treated with Cy-5 labeled PCHNPs and AnCHNPs (5 μg/mL) for 2 hrs. Furthermore, different endocytosis inhibitors Sodium azide (NaN3, 99.5%, Sigma-Aldrich, Lot #S2002), Dynasore (C18H14N2O4, 98%, Sigma-Aldrich, Lot #324410), Nystatin (Sigma-Aldrich, Lot #N4014), Chlorpromazine (C17H19ClN2S·HCl, 98%, Sigma-Aldrich, Lot #C8138) were used. The Fluorescence of Cy-5 taken up by DCs were measured by flow cytometry."}, "EL4 cells [3]": {"test_system": "EL4 cells", "assay": "Cellular uptake of Cy5-labelled nanoparticles in EL4 cells", "type": "cell-based", "conditions": "EL4, co-incubation"}, "CFSE-labeled BMDCs": {"test_system": "CFSE-labeled BMDCs", "assay": "Transwell DC migration assay", "type": "cell-based, mouse", "conditions": "5 or 10 μg/mL, 24 h, B16F10-OVA in lower chamber"}, "[4]": {"test_system": "B16F10-OVA-tumor-bearing C57BL/6 mice"}, "[5]": {"test_system": "BMDCs/B16F10-OVA (pre-irradiated, 100 Gy) co-cultures", "assay": "DC activation and antigen-presentation in co-culture (flow cytometry, ELISA)", "type": "cell-based, mouse", "conditions": "comparators"}, "BMDCs [6]": {"test_system": "BMDCs", "assay": "[Ca2+]int measurement (Fluo-3 AM)", "type": "cell-based, mouse", "conditions": "5 or 10 μg/mL Ca", "method": "Fluo-3 AM kit (Cayman, 14960) was used to measure [Ca2+]int in BMDCs after treatment with AnCHNPs. Briefly, BMDCs were seeded into a 96-well plate at a density of 1×10^4 cells per well and incubated overnight. At different time points (0, 1, 2, 4, 8, and 24 hrs), medium was taken from the well, replenished with prewarmed (37° C.) probe-containing medium (to a final concentration of 5 μM). Cells were incubated for 30 mins under the same growth conditions. Then the loading solution was replaced with fresh medium, removing dye molecules nonspecifically attached to cell surface. Cells were incubated for another 30 mins to allow for complete de-esterification of the acetoxymethyl esters. Fluorescence (ex/em: 485/520 nm) was recorded on a microplate reader (Synergy Mx, BioTeK)."}, "EL4 cells [7]": {"test_system": "EL4 cells", "conditions": "dose as equivalent calcium concentration"}, "EL4 cells [8]": {"test_system": "EL4 cells", "assay": "Intracellular calcium levels (Fluo-3AM)", "type": "cell-based", "conditions": "same calcium concentration", "method": "Changes in intracellular calcium levels were measured using Fluo-3AM as an indicator."}, "BMDCs [9]": {"test_system": "BMDCs", "assay": "BMDC maturation, flow cytometry for MHC-II and CD205", "type": "cell-based, mouse", "conditions": "5 or 10 μg/mL, 24 h, no cancer cells", "method": "Maturation BMDCs were seeded onto a 6-well plate at a density of 1×10^6 cells per well one day before the experiment. BMDCs were treated with PBS, CaCl2 solution (5 or 10 μg/mL), and AnCHNPs (5 or 10 μg/mL). After incubation for 24 hrs, supernatant was removed, and BMDCs were harvested by cell lifter. BMDCs were subsequently stained with MHCII-FITC (#107616) and CD205-APC (#138206) and analyzed flow cytometry. Also, BMDCs were treated with SiO2-PEG shell (10 μg/mL), harvested after 24 hrs incubation, stained with MHCII-FITC (#107616), CD80-PerCP-Cy5.5 (#560526), CD86-BV605 (#563055), CD40-PE (#12-0401-83), and OVA-APC (#17-5743-82), and analyzed by flow cytometry."}}, "data": [{"smiles": "N.N.O=C([O-])C1(C(=O)[O-])CCC1.[Pt+2]", "note": "[carboplatin]", "values": [{"measurement": "average survival", "setting": "[1]", "result": 15, "unit": "days"}, {"measurement": "time by which all animals died", "setting": "[1]", "result": "≤ 3", "unit": "weeks"}, {"measurement": "tumor growth", "setting": "[1]", "result": "only marginally retarded tumor growth"}]}, {"smiles": "CN(C)CCCN1c2ccccc2Sc2ccc(Cl)cc21", "note": "[chlorpromazine, Chlorpromazine]", "values": [{"measurement": "effect of endocytosis inhibitor on AnCHNPs uptake by DCs", "setting": "BMDCs [2]", "result": "inhibited"}]}, {"smiles": "C[C@@H]1[C@H](O)[C@@H](C)/C=C/C=C/CC/C=C/C=C/C=C/C=C/C(O[C@H]2O[C@H](C)[C@@H](O)[C@H](N)[C@@H]2O)CC2O[C@](O)(CC(O)C(O)CCC(O)CC(O)CC(O)CC(=O)O[C@H]1C)CC(O)C2C(=O)O", "note": "(some centres unmarked) [nystatin, Nystatin]", "values": [{"measurement": "effect of endocytosis inhibitor on AnCHNPs uptake by DCs", "setting": "BMDCs [2]", "result": "had no effect on the particle uptake"}, {"measurement": "effect of endocytosis inhibitor on uptake of PMA@CCNP-Ab", "setting": "EL4 cells [3]", "result": "did not inhibit cellular uptake"}]}, {"smiles": "O=C(N/N=C/c1ccc(O)c(O)c1)c1cc2ccccc2cc1O", "note": "[dynasore, Dynasore]", "values": [{"measurement": "effect of endocytosis inhibitor on AnCHNPs uptake by DCs", "setting": "BMDCs [2]", "result": "inhibited"}, {"measurement": "effect of endocytosis inhibitor on uptake of PMA@CCNP-Ab", "setting": "EL4 cells [3]", "result": "decreased"}]}, {"smiles": "[Ca+2].[Cl-].[Cl-]", "note": "[CaCl2, calcium chloride]", "values": [{"measurement": "numbers of DCs migrating to the bottom chamber", "setting": "CFSE-labeled BMDCs", "result": "minimally affected DC migration"}, {"measurement": "IFN-γ+ CTL frequency, splenocytes co-incubated with B16F10-OVA cells ex vivo", "setting": "[4]; 6 h co-incubation", "result": "marginal T cell activation"}, {"measurement": "change of serum cytokine levels (IL-1β, IL-6, TNF-α, IFN-γ, IL-12 elevated, IL-10 decreased)", "setting": "[4]; Day 3 and Day 7, relative to PBS control, comparator", "result": "not"}, {"measurement": "frequency of Tregs (CD45+CD3+CD4+Foxp3+) in tumors", "setting": "[4]; RT 10 Gy + 200 μg/kg i.t.", "result": "minimum impact"}, {"measurement": "tumor-infiltration of cytotoxic T cells (CTLs, CD45+CD3+CD8+)", "setting": "[4]; RT 10 Gy + 200 μg/kg i.t., tumor, Day 7", "result": "minimum impact"}, {"measurement": "impact on DC activation", "setting": "[5]", "result": "no positive impact on DC activation"}, {"measurement": "[Ca2+]int change", "setting": "BMDCs [6]", "result": "little [Ca^2+]int increase"}, {"measurement": "Ca2+ concentration at which an effect on cell viability / significant toxicity appears", "setting": "EL4 cells [7]", "result": "≥ 100", "unit": "µg/mL"}, {"measurement": "intracellular calcium levels", "setting": "EL4 cells [8]", "result": "did not increase cellular calcium levels"}, {"measurement": "CD205 expression in DCs", "setting": "BMDCs [9]", "result": "no impact"}, {"measurement": "population and expression levels (MFI) of MHC-II+ DCs", "setting": "BMDCs [9]; relative to untreated DCs", "result": "no impact"}]}, {"smiles": "[N-]=[N+]=[N-].[Na+]", "note": "[azide, Sodium azide]", "values": [{"measurement": "effect of endocytosis inhibitor on AnCHNPs uptake by DCs", "setting": "BMDCs [2]", "result": "reduced"}]}]}
